Active and inactive are the calls of the source. No cut-off for these calls is given here.
Columns and labels:
Type in all cases: functional
Mus musculus [1] = assay: Anti-inflammatory activity in Mus musculus Kunming (mouse) assessed as inhibition of xylene-induced ear edema at 200 mg/kg, po administered 1 hr prior to xylene challenge measured at 1 hr post xylene challenge relative to control
Mus musculus [2] = assay: Anti-inflammatory activity in Mus musculus Kunming (mouse) assessed as inhibition of xylene-induced ear edema at 200 mg/kg, po administered 0.5 hr prior to xylene challenge measured at 0.5 hr post xylene challenge relative to control
Mus musculus [3] = assay: Anti-inflammatory activity in Mus musculus Kunming (mouse) assessed as inhibition of xylene-induced ear edema at 200 mg/kg, po administered 24 hr prior to xylene challenge measured at 24 hr post xylene challenge relative to control
Mus musculus [4] = assay: Anti-inflammatory activity in Mus musculus Kunming (mouse) assessed as inhibition of xylene-induced ear edema at 200 mg/kg, po administered 3 hr prior to xylene challenge measured at 3 hr post xylene challenge relative to control
Mus musculus [5] = assay: Anti-inflammatory activity in Mus musculus Kunming (mouse) assessed as inhibition of xylene-induced ear edema at 50 mg/kg, po administered 2 hr prior to xylene challenge measured at 2 hr post xylene challenge relative to control
Mus musculus [6] = assay: Anti-inflammatory activity in Mus musculus Kunming (mouse) assessed as inhibition of xylene-induced ear edema at 100 mg/kg, po administered 2 hr prior to xylene challenge measured at 2 hr post xylene challenge relative to control
Mus musculus [7] = assay: Anti-inflammatory activity in Mus musculus Kunming (mouse) assessed as inhibition of xylene-induced ear edema at 200 mg/kg, po administered 2 hr prior to xylene challenge measured at 2 hr post xylene challenge relative to control
Mus musculus [8] = assay: Anti-inflammatory activity in Mus musculus Kunming (mouse) assessed as inhibition of xylene-induced ear edema at 200 mg/kg, po administered 4 hr prior to xylene challenge measured at 4 hr post xylene challenge relative to control

`O=C(/C=C/c1ccc(Cl)cc1)c1ccc(O)cc1O` showed an inhibition in vivo at 200 mg/kg (Mus musculus [1]) of 32.5%, an inhibition in vivo at 200 mg/kg (Mus musculus [2]) of 30.2% and an inhibition in vivo at 200 mg/kg (Mus musculus [3]) of 21.5%. For the same compound, the inhibition in vivo at 200 mg/kg (Mus musculus [4]) was 33.6%, the inhibition in vivo at 50 mg/kg (Mus musculus [5]) was 18.6% and the inhibition in vivo at 100 mg/kg (Mus musculus [6]) was 49%. It also gave an inhibition in vivo at 200 mg/kg (Mus musculus [7]) of 68.2% and an inhibition in vivo at 200 mg/kg (Mus musculus [8]) of 32.3%.
For `COc1ccc(/C=C/C(=O)c2ccc(O)cc2O)cc1`, the inhibition in vivo at 200 mg/kg (Mus musculus [7]) was 51.4%.
Compound `O=C(/C=C/c1cccc([N+](=O)[O-])c1)c1ccc(O)cc1O` has an inhibition in vivo at 200 mg/kg (Mus musculus [7]) of 30%.
`CN(C)c1ccc(/C=C/C(=O)c2ccc(O)cc2)cc1` was tested, and the inhibition in vivo at 200 mg/kg (Mus musculus [7]) was 17.3%.
`O=C(/C=C/c1ccc(O)cc1)c1ccc(O)cc1` [4,4'-DIHYDROXYCHALCONE] showed an inhibition in vivo at 200 mg/kg (Mus musculus [7]) of 5.42%.
Work on `CN(C)c1ccc(/C=C/C(=O)c2ccc(O)cc2O)cc1` yielded an inhibition in vivo at 200 mg/kg (Mus musculus [1]) of 45.8%, an inhibition in vivo at 200 mg/kg (Mus musculus [2]) of 41.7% and an inhibition in vivo at 200 mg/kg (Mus musculus [3]) of 21.2%. For the same compound, the inhibition in vivo at 200 mg/kg (Mus musculus [4]) was 27.5%, the inhibition in vivo at 50 mg/kg (Mus musculus [5]) was 15.1% and the inhibition in vivo at 100 mg/kg (Mus musculus [6]) was 32.9%. The inhibition in vivo at 200 mg/kg (Mus musculus [7]) was 62.5% and the inhibition in vivo at 200 mg/kg (Mus musculus [8]) was 25.3%.
In the case of `COc1cc(/C=C/C(=O)c2ccc(O)cc2)ccc1O`, the inhibition in vivo at 200 mg/kg (Mus musculus [7]) is reported as 7.83%.
`CC(C)Cc1ccc(C(C)C(=O)O)cc1` (stereo unspecified) [IBUPROFEN] showed an inhibition in vivo at 200 mg/kg (Mus musculus [1]) of 41.6%, an inhibition in vivo at 200 mg/kg (Mus musculus [2]) of 32.5% and an inhibition in vivo at 200 mg/kg (Mus musculus [3]) of 20.6%. The inhibition in vivo at 200 mg/kg (Mus musculus [4]) was 34.5%, the inhibition in vivo at 50 mg/kg (Mus musculus [5]) was 19.8% and the inhibition in vivo at 100 mg/kg (Mus musculus [6]) was 33%. For the same compound, the inhibition in vivo at 200 mg/kg (Mus musculus [7]) was 53.5% and the inhibition in vivo at 200 mg/kg (Mus musculus [8]) was 30.1%.
`O=C(/C=C/c1ccc(Cl)cc1Cl)c1ccc(O)cc1O` gave an inhibition in vivo at 200 mg/kg (Mus musculus [7]) of 26%.
In the case of `COc1cc(/C=C/C(=O)c2ccc(O)cc2O)ccc1O` [HOMOBUTEIN], the inhibition in vivo at 200 mg/kg (Mus musculus [7]) is reported as 25.2%.
`O=C(/C=C/c1ccccc1[N+](=O)[O-])c1ccc(O)cc1O` showed an inhibition in vivo at 200 mg/kg (Mus musculus [7]) of 20.2%.
Compound `O=C(/C=C/c1ccc(O)c(O)c1)c1ccc(O)cc1O` [BUTEIN] has an inhibition in vivo at 200 mg/kg (Mus musculus [7]) of 14.4%.
`Cc1ccc(/C=C/C(=O)c2ccc(O)cc2O)cc1` was tested, and the inhibition (Mus musculus [7]) was “inactive”.
`O=C(/C=C/c1ccc2c(c1)OCO2)c1ccc(O)cc1O` gave an inhibition in vivo at 200 mg/kg (Mus musculus [7]) of 22%.
`O=C(/C=C/c1ccc(O)cc1)c1ccc(O)cc1O` [ISOLIQUIRITIGENIN] showed an inhibition in vivo at 200 mg/kg (Mus musculus [7]) of 14.9%.
